The results in this text go back to patent publication US20170051149A1, “AZOARYLS AS REVERSIBLY MODULATABLE TUBULIN INHIBITORS” (ECOLE NORMALE SUPERIEURE DE LYON, priority 2014, published 2017).

A short description of data set [1]: UV-Vis absorption spectra of trans and cis isomers (λstrong, εE, λiso). Type of data set: physicochemical.
Data set [2] in a line: thermal reversion halflife of spontaneous cis->trans isomerisation. The format is physicochemical.
The mark [3] stands for this setting: fluorophore moiety range above 510 nm, PBS pH = 7.4, 20% MeCN.

For the compound `COc1ccc(N=Nc2cc(OC)c(OC)c(OC)c2)cc1O` [I.1, 2-methoxy-5-((3,4,5-trimethoxyphenyl)diazenyl)phenol], the “εE(λstrong)” value in data set [1] (PBS pH = 6, 20% MeCN) amounted to 17100 M⁻¹ cm⁻¹; in data set [1] (PBS pH = 7.4, 20% MeCN) it was 17700 M⁻¹ cm⁻¹. The λiso in data set [1] (PBS pH = 6, 20% MeCN) came out at 465 nm; in data set [1] (PBS pH = 7.4, 20% MeCN), 470 nm. In addition, the λstrong in data set [1] (PBS pH = 6, 20% MeCN) is listed as 380 nm; in data set [1] (PBS pH = 7.4, 20% MeCN) it was 375 nm. Besides, the “τ, reversion time” value in data set [2] (PBS pH = 6, 20% MeCN) is recorded as 8.4 min; in data set [2] (PBS pH = 7.4, 20% MeCN) it was 6.2 min.
Regarding `CCN(CC)c1ccc2c(-c3ccccc3C(=O)N3CCN(CCCOc4c(N=Nc5cc(OC)c(OC)c(OC)c5)ccc(OC)c4C)CC3)c3ccc(=[N+](CC)CC)cc-3oc2c1.CCN(CC)c1ccc2c(-c3ccccc3C(=O)N3CCN(CCCOc4c(N=Nc5cc(OC)c(OC)c(OC)c5)ccc(OC)c4C)CC3)c3ccc(=[N+](CC)CC)cc-3oc2c1.O=C[O-].O=C[O-]` [I.25, N-(6-(diethylamino)-9-(2-(4-(3-(3-methoxy-2-methyl-6-((3,4,5-trimethoxyphenyl)diazenyl)phenoxy)propyl)piperazine-1-carbonyl)phenyl)-3H-xanthen-3-ylidene)-N-ethylethanaminium bis(formate) salt], in data set [1] (PBS pH = 7.4, 20% MeCN), the “εE(λstrong)” value was 15300 M⁻¹ cm⁻¹, the λiso is 460 nm and the λstrong came to 375 nm. Also, in data set [1] (setting [3]), the “εE(λstrong)” value is recorded as “(66600) M^−1cm^−1” and the λstrong result is listed as “(565) nm”. In data set [1] (fluorophore moiety range, A(λ > 510) invariant upon photoswitching), the λiso result is on record as “(510 ff) nm”. The “τ, reversion time” value in data set [2] (PBS pH = 7.4, 20% MeCN) amounted to 16.2 min.
